Experimental data reported in patent US20240101602A1, “ANTIMICROBIAL PEPTIDES AND METHOD OF PREVENTING OR TREATING INFECTION BY USING THE SAME” (priority 2020, published 2024).
In brackets after ≈: the same amount, converted by molar mass. Where two headings read alike, the source gives them in different places. Non-standard residues stand in square brackets, D forms with d. Residues, ends and D or L forms follow the SMILES beside them. *: point of attachment. Palmitoyl = CCCCCCCCCCCCCCCC(=O)*; Octanoyl = CCCCCCCC(=O)*; Orn = NCCC[C@H](N)C(=O)O; Hexanoyl = CCCCCC(=O)*; Butyryl = CCCC(=O)*

Key:
[1] = tested on: Pseudomonas aeruginosa ATCC 9027
[2] = tested on: Cryptococcus neoformans H99
[3] = tested on: Cryptococcus neoformans T1 (fluconazole-resistant)
[4] = tested on: Cryptococcus neoformans 89-610 (fluconazole-resistant)
[5] = tested on: Cryptococcus deuterogattii R265
[6] = tested on: Botrytis cinerea; format: cell-based
Method: (§1) The experiments were conducted in an optimal minimal medium for each pathogen. The media and growth conditions were described in Tables 2 and 3. MIC and MBC values were determined following the procedures described above. […] Fifty microliters of serially diluted peptides (2-fold the final concentration) were added in a 96-well polystyrene plate with 50 μL of the fungal spore suspension. […] The plates were incubated at an optimal temperature without shaking. […] MFC was determined as the lowest peptide concentration at which no fungal growth was observed.

[7] = tested on: Cgl FST02; format: cell-based, Colletotricum gloeosporioides; conditions: Cgl FST02; optimal minimal media (Table 11)
Method: as §1

[8] = tested on: Klebsiella pneumonia NTUH-K2044
[9] = tested on: Staphylococcus aureus BCRC 10777
[10] = tested on: Staphylococcus epidermidis ATCC 14990
[11] = tested on: Eco DH5α; assay: MIC and MBC by serial dilution in 96-well plate; format: cell-based, Escherichia coli; conditions: Table 13
Method: The effect of peptide length on the antimicrobial activity was investigated by deciding the minimal inhibitory concentration (MIC) and minimal bactericidal concentration (MBC) for each peptide against the pathogen with the media and growth conditions of phytopathogenic bacteria and E. coli as described in Table 1. Single bacterial colony grown on an optimal rich agar medium was picked, and each grew in 3 mL of the same rich liquid medium for 4 to 6 h.
For experiments carried out in the rich medium, the bacterial broth culture was then diluted in the same medium to give a final concentration of OD600=0.08, and then further diluted 100 folds in the same medium.
For experiments carried out in the minimal medium, the bacterial cells were collected from the bacterial liquid culture by centrifugation, re-suspended in an optimal minimal medium to give a final concentration of OD600=0.08, and then further diluted 100 folds in the same minimal medium.
Fifty microliters of serially diluted peptides (2-fold the final concentration) were added in a 96-well polystyrene plate with 50 μL of the bacterial culture. The final concentrations of peptides were 0, 2, 4, 8, 16 and 32 μg/mL. The plates were incubated at an optimal temperature without shaking.
MBC was determined as the lowest peptide concentration at which no colonies formed.

[12] = tested on: Erwinia chrysanthemi; format: cell-based
Method: (§2) The effect of peptide length on the antimicrobial activity was investigated by deciding the minimal inhibitory concentration (MIC) and minimal bactericidal concentration (MBC) for each peptide against the pathogen with the media and growth conditions of phytopathogenic bacteria and E. coli as described in Table 1. Single bacterial colony grown on an optimal rich agar medium was picked, and each grew in 3 mL of the same rich liquid medium for 4 to 6 h. For experiments carried out in the rich medium, the bacterial broth culture was then diluted in the same medium to give a final concentration of OD600=0.08, and then further diluted 100 folds in the same medium. For experiments carried out in the minimal medium, the bacterial cells were collected from the bacterial liquid culture by centrifugation, re-suspended in an optimal minimal medium to give a final concentration of OD600=0.08, and then further diluted 100 folds in the same minimal medium. Fifty microliters of serially diluted peptides (2-fold the final concentration) were added in a 96-well polystyrene plate with 50 μL of the bacterial culture. […] The plates were incubated at an optimal temperature without shaking. […] MBC was determined as the lowest peptide concentration at which no colonies formed. The experiments were conducted in an optimal minimal medium for each pathogen. The media and growth conditions were described in Tables 2 and 3. MIC and MBC values were determined following the procedures described above. […] Fifty microliters of serially diluted peptides (2-fold the final concentration) were added in a 96-well polystyrene plate with 50 μL of the fungal spore suspension.

[13] = tested on: Pectobacterium carotovorum subsp. carotovorum; format: cell-based
Method: as §2

[14] = tested on: Salmonella typhimurium NCHU 15721
[15] = Bc, optimal minimal media (Table 11)
[16] = Salmonella typhimurium NCHU 15721
[17] = Pseudomonas aeruginosa ATCC 9027

Molecule: Ac-WKKLHKLLKKL-NH2 [pepD3-5H]
- MBC ([1]; ATCC 9027): 8 µg/mL
- MIC ([1]; ATCC 9027): 4 µg/mL

Molecule: CC(=O)N[C@@H](Cc1c[nH]c2ccccc12)C(=O)N[C@H](CCCCN)C(=O)N[C@H](CCCCN)C(=O)N[C@H](CC(C)C)C(=O)N[C@H](CCCCN)C(=O)N[C@H](CCCCN)C(=O)N[C@H](CC(C)C)C(=O)N[C@H](CC(C)C)C(=O)N[C@H](CCCCN)C(=O)N[C@H](CCCCN)C(=O)N[C@H](CC(C)C)C(N)=O [pepdD3, Ac-Wkklkkllkkl-NH2] (Ac-W[dK][dK][dL][dK][dK][dL][dL][dK][dK][dL]-NH2)
- MIC ([2]; Cryptococcus neoformans H99): 8 µg/mL (≈ 5.45 µM)
- MFC ([2]; H99): 8 µg/mL (≈ 5.45 µM)
- MIC ([3]; Cryptococcus neoformans T1 (fluconazole-resistant)): 4 µg/mL (≈ 2.73 µM)
- MFC ([3]; T1 (fluconazole-resistant)): 4 µg/mL (≈ 2.73 µM)
- MFC ([4]; 89-610 (fluconazole-resistant)): 4 µg/mL (≈ 2.73 µM)
- MIC ([4]; Cryptococcus neoformans 89-610 (fluconazole-resistant)): 4 µg/mL (≈ 2.73 µM)
- MFC [5]: 4 µg/mL (≈ 2.73 µM)
- MIC ([5]; Cryptococcus deuterogattii R265): 4 µg/mL (≈ 2.73 µM)

Molecule: CCCCCCCCCCCCCCCC(=O)N[C@@H](Cc1c[nH]c2ccccc12)C(=O)N[C@@H](CCCCN)C(=O)N[C@@H](CCCCN)C(=O)N[C@@H](CC(C)C)C(=O)N[C@@H](CCCCN)C(=O)N[C@@H](CCCCN)C(=O)N[C@@H](CC(C)C)C(=O)N[C@@H](CC(C)C)C(=O)N[C@@H](CCCCN)C(=O)N[C@@H](CCCCN)C(=O)N[C@@H](CC(C)C)C(=O)N[C@@H](CCCCN)C(=O)N[C@@H](CCCCN)C(=O)N[C@@H](CC(C)C)C(N)=O [pepD2P] (Palmitoyl-WKKLKKLLKKLKKL-NH2)
- MFC [6]: 6.4 µg/mL (≈ 3.15 µM)
- MIC [6]: 6.4 µg/mL (≈ 3.15 µM)

Molecule: Stearyl-WKKLKKLLKKLKKL-NH2 (stearyl-WKKLKKLLKKLKKL-NH2) [pepD2S, 11]
- MFC [6, 15]: — (“—” indicates no antimicrobial activity being detected at the highest peptide concentration (32 μg/mL) tested in this study.)
- MIC [6, 15]: — (“—” indicates no antimicrobial activity being detected at the highest peptide concentration (32 μg/mL) tested in this study.)
- MFC [7]: — (“—” indicates no antimicrobial activity being detected at the highest peptide concentration (32 μg/mL) tested in this study.)
- MIC [7]: — (“—” indicates no antimicrobial activity being detected at the highest peptide concentration (32 μg/mL) tested in this study.)

Molecule: CCCC(=O)N[C@@H](Cc1c[nH]c2ccccc12)C(=O)N[C@@H](CCCCN)C(=O)N[C@@H](CCCCN)C(=O)N[C@@H](CC(C)C)C(=O)N[C@@H](CCCCN)C(=O)N[C@@H](CCCCN)C(=O)N[C@@H](CC(C)C)C(=O)N[C@@H](CC(C)C)C(=O)N[C@@H](CCCCN)C(=O)N[C@@H](CCCCN)C(=O)N[C@@H](CC(C)C)C(N)=O [pepD3B] (Butyryl-WKKLKKLLKKL-NH2)
- MBC [8]: 16 µg/mL (≈ 10.7 µM)
- MIC [8]: 16 µg/mL (≈ 10.7 µM)
- MBC [9]: 16 µg/mL (≈ 10.7 µM)
- MIC [9]: 16 µg/mL (≈ 10.7 µM)
- MBC [10]: 16 µg/mL (≈ 10.7 µM)
- MIC [10]: 16 µg/mL (≈ 10.7 µM)

Molecule: Ac-WKKLKKFLKKL-NH2 [pepD3-7F]
- MBC ([1]; ATCC 9027): 8 µg/mL
- MIC ([1]; ATCC 9027): 4 µg/mL

Molecule: CC(=O)N[C@@H](Cc1c[nH]c2ccccc12)C(=O)N[C@@H](CCCN)C(=O)N[C@@H](CCCN)C(=O)N[C@@H](CC(C)C)C(=O)N[C@@H](CCCN)C(=O)N[C@@H](CCCN)C(=O)N[C@@H](CC(C)C)C(=O)N[C@@H](CC(C)C)C(=O)N[C@@H](CCCN)C(=O)N[C@@H](CCCN)C(=O)N[C@@H](CC(C)C)C(=O)N[C@@H](CCCN)C(=O)N[C@@H](CCCN)C(=O)N[C@@H](CC(C)C)C(N)=O [pepO2, Ac-WOOLOOLLOOLOOL-NH2] (Ac-W[Orn][Orn]L[Orn][Orn]LL[Orn][Orn]L[Orn][Orn]L-NH2)
- MBC [8]: 32 µg/mL (≈ 18.6 µM)
- MIC [8]: 16 µg/mL (≈ 9.28 µM)
- MBC [9]: 32 µg/mL (≈ 18.6 µM)
- MIC [9]: 32 µg/mL (≈ 18.6 µM)
- MBC [10]: 32 µg/mL (≈ 18.6 µM)
- MIC [10]: 32 µg/mL (≈ 18.6 µM)

Molecule: Ac-WKKLKKALKKL-NH2 [pepD3-7A]
- MBC ([1]; ATCC 9027): 8 µg/mL
- MIC ([1]; ATCC 9027): 4 µg/mL

Molecule: Ac-WKKLKKILKKL-NH2 [pepD3-7I]
- MBC ([1]; ATCC 9027): 4 µg/mL
- MIC ([1]; ATCC 9027): 4 µg/mL

Molecule: Ac-WRRLRRLLRRLRRL-NH2 [pepR2]
- MBC [8]: 32 µg/mL
- MIC [8]: 32 µg/mL
- MBC [9]: 16 µg/mL
- MIC [9]: 16 µg/mL
- MBC [10]: 16 µg/mL
- MIC [10]: 16 µg/mL

Molecule: Ac-WKKIKKIIKKIKKI-NH2 [pepI2]
- MBC [11]: 5.3 µg/mL
- MIC [11]: 5.3 µg/mL
- MBC [12]: 16.0 µg/mL
- MIC [12]: 16.0 µg/mL
- MBC [13]: 1.8 µg/mL
- MIC [13]: 1.5 µg/mL
- MBC [8]: 32 µg/mL
- MIC [8]: 16 µg/mL
- MBC [9]: 32 µg/mL
- MIC [9]: 32 µg/mL
- MBC [10]: 32 µg/mL
- MIC [10]: 16 µg/mL
- MBC ([1]; ATCC 9027): 4 µg/mL
- MIC ([1]; ATCC 9027): 4 µg/mL
- MBC [14, 16]: 16 µg/mL
- MIC [14, 16]: 8 µg/mL

Molecule: CCCCCC(=O)N[C@@H](Cc1c[nH]c2ccccc12)C(=O)N[C@@H](CCCCN)C(=O)N[C@@H](CCCCN)C(=O)N[C@@H](CC(C)C)C(=O)N[C@@H](CCCCN)C(=O)N[C@@H](CCCCN)C(=O)N[C@@H](CC(C)C)C(=O)N[C@@H](CC(C)C)C(=O)N[C@@H](CCCCN)C(=O)N[C@@H](CCCCN)C(=O)N[C@@H](CC(C)C)C(N)=O [pepD3H] (Hexanoyl-WKKLKKLLKKL-NH2)
- MBC [8]: 16 µg/mL (≈ 10.5 µM)
- MIC [8]: 16 µg/mL (≈ 10.5 µM)
- MBC [9]: 8 µg/mL (≈ 5.25 µM)
- MIC [9]: 8 µg/mL (≈ 5.25 µM)
- MBC [10]: 16 µg/mL (≈ 10.5 µM)
- MIC [10]: 16 µg/mL (≈ 10.5 µM)
- MBC ([1]; ATCC 9027): 8 µg/mL (≈ 5.25 µM)
- MIC ([1]; ATCC 9027): 4 µg/mL (≈ 2.63 µM)
- MBC ([14]; murium NCHU 15721): 32 µg/mL (≈ 21 µM)
- MIC ([14]; murium NCHU 15721): 16 µg/mL (≈ 10.5 µM)

Molecule: Ac-WKKLKKMLKKL-NH2 [pepD3-7M]
- MBC ([1]; ATCC 9027): 8 µg/mL
- MIC ([1]; ATCC 9027): 4 µg/mL

Molecule: Ac-WKKLRKLLKKL-NH2 [pepD3-5R]
- MBC [1, 17]: 8 µg/mL
- MIC [1, 17]: 4 µg/mL

Molecule: CCCCCCCC(=O)N[C@@H](Cc1c[nH]c2ccccc12)C(=O)N[C@@H](CCCCN)C(=O)N[C@@H](CCCCN)C(=O)N[C@@H](CC(C)C)C(=O)N[C@@H](CCCCN)C(=O)N[C@@H](CCCCN)C(=O)N[C@@H](CC(C)C)C(=O)N[C@@H](CC(C)C)C(=O)N[C@@H](CCCCN)C(=O)N[C@@H](CCCCN)C(=O)N[C@@H](CC(C)C)C(N)=O [pepD3O] (Octanoyl-WKKLKKLLKKL-NH2)
- MBC [8]: 16 µg/mL (≈ 10.3 µM)
- MIC [8]: 16 µg/mL (≈ 10.3 µM)
- MBC [9]: 8 µg/mL (≈ 5.16 µM)
- MIC [9]: 8 µg/mL (≈ 5.16 µM)
- MBC [10]: 8 µg/mL (≈ 5.16 µM)
- MIC [10]: 8 µg/mL (≈ 5.16 µM)

Molecule: Ac-WKKVKKVVKKVKKV-NH2 [pepV2]
- MBC [11]: 32.0 µg/mL
- MIC [11]: 32.0 µg/mL
